Data set [1] in a line: Solubility in water of benzyl isothiocyanate. The class given is physicochemical. To be noted: free compound, oily liquid.
Data set [2] is described as follows: Solubility in aqueous solution of benzyl isothiocyanate formed by myrosinase in the α-cyclodextrin complex, followed by NMR. Format: physicochemical. To be noted: complexed in α-cyclodextrin; formed by action of myrosinase on the glucosinolate complex; 50 mM deuterated phosphate buffer pH 6, 25° C. As to the method:
In this example, the inclusion complex formed in example 1 is converted into an inclusion complex of benzyl isothiocyanate in the cyclodextrin.
For this purpose, myrosinase is added to the solution of the complex prepared in example 1, then hydrolysis of the glucosinolate is followed under nuclear magnetic resonance.
The results are given in FIGS. 4, 5 and 6 which illustrate the NMR spectra obtained at 25° C. and 500 MHz, before the addition of myrosinase (FIG. 4), 1 hour after the addition of myrosinase (FIG. 5), and 17 hours after the addition of myrosinase (FIG. 6).

The values that follow come from patent publication US6716827B1, “Complexes for immobilizing isothiocyanate natural precursors in cyclodextrins, preparation and use” (Commissariat a l'Energie Atomique, priority 1998, dated 2004).

`S=C=NCc1ccccc1` [benzyl isothiocyanate]: the solubility in water entry in data set [1] is listed as “insoluble in water”. In addition, the “solubility in an aqueous solution” value in data set [2] is “soluble”.
